The structures appear in SMILES notation.

The text below walks through data of patent US9636327B2 (University Health Network, Toronto General Hospital, priority 2013, dated 2017).

For series [1] the following is noted: more water-soluble than dantrolene; cited from earlier work.
The test system of the next series is isolated rabbit hearts. The experiment in a line: Ex-vivo rabbit model: Langendorff-perfused isolated hearts, VF induction and optical mapping of calcium alternans. Further details: species or system New-Zealand white rabbits. How it is done: New-Zealand white rabbits with weight ranging from 2.4-4.5 Kg were used. (n=14). All animals were anesthetized with sodium pentobarbital (35 mg/kg), aorta was attached to the Langendorff apparatus and retrogradely perfused with 37.5° C. oxygenated Tyrode solution with albumin 80 mg/L in deionized water equilibrated with 95% 02 and 5% CO2. Simultaneous optical mapping of epicardial surface of isolated hearts for Calcium and Voltage was performed using 0.5 mg Rhod2-AM and 10 microM/1 RH237. Blebbistatin at 10 microM/L was added to Tyrode solution to block cardiac contractions.
VF was induced by burst pacing for 30 sec at 60 Hz and 10V and hearts were continuously perfused during VF. […] VF was monitored for 4 min and then defibrillated at 5 J. Five minutes after termination of first VF episode, 4 more episodes of fibrillation-defibrillation were tried on each heart with 5 min recovery time (in sinus rhythm) in between. VF duration for each VF episode was 4 min (or shorter in case of self-termination) followed by defibrillation. […] Additionally, hearts were paced at various rates of 250, 220, 200, 180 and 160 msec Cycle Length (CL) for 30 seconds after first and second VF episodes. Simultaneous optical mapping of Calcium and voltage was performed during pacing to evaluate for Calcium Alternans. Calcium alternans was defined as beat-to-beat difference of more than 10% in Calcium wave amplitude. At the end of the experiment, LV tissue from the LV free wall was removed and frozen in liquid Nitrogen for further western blot analysis.
P<0.05 was considered statistically significant.

A further series deals with Yorkshire pigs. Kind of series: In-vivo swine model of VF cardiac arrest with CPR and defibrillation.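 Also: VF induced by burst pacing in anesthetized pigs, left untreated 4 min, then 3 min CPR and defibrillation, with ECG and aortic pressure monitored for 30 min afterwards.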
Where [2] appears, read: 2 mg/kg bolus, defibrillation energy.
The mark [3] stands for this setting: 2 mg/kg bolus, post-defibrillation.

Source text for Yorkshire pigs: Previously healthy 10-12 weeks-old Yorkshire pigs (n=24) were used. […] Following endotracheal intubation anesthesia was maintained by continuous administration of Isoflurane (2% mixed with 100% O2) and ventilated (Ohio ventilator R.A.E. Technologies, Inc. Ontario) at 21 breaths/min and was continuously measured using CO2MO Plus monitoring system (Novametrix Medical Systems). Animals were continuously monitored using Lifepak 12 Medtronic-PhysioControl defibrillator for ECG monitoring. Two self-adhesive defibrillation pads were attached to the lateral aspects of the chest wall for defibrillation. (Medtronics Inc, Redmond, Wash.)
Femoral arteries and veins were catheterized and an EP catheter (EP Technologies Inc, Sunnyvale, Calif.) was placed in the right ventricle to enable pacing and to induce VF. Two micro manometer-tipped Millar catheters (Millar Instruments, Inc, Houston, Tex.) were placed in Abdominal Aorta and right atrium. Pacing catheter was further attached to a custom designed signal acquisition and processing system. (Electrophysiological Recording system-Acqui2, Toronto, ON) The pressure and ECG signals were recorded at 1000 Hz with a 0.05 Hz high pass and 500 Hz low pass filter by custom software. (Acqui2, Cartesian Labs)
After initial monitoring and stabilization, VF was induced by burst pacing (10V of 60 Hz current for 2 seconds) and left untreated for 4 minutes. Then, chest compression was started using a pneumatic device (Lucas, Jolife AB, Lund, Sweden) at 100 compressions/min and manual ventilation at 6 breath/min using 5-6 liters/min of 100% O2 with an AMBU bag was performed. CPR was continued for 3 minutes with no interruption of chest compressions. […] After successful defibrillation, animals were monitored for 30 min to assess the outcome and occurrence of Refibrillations. At the end, survivors were sacrificed by inducing VF. If animals could not be defibrillated during refibrillation, the energy level was increased in a stepwise fashion to up to 4 attempts at 360 J.
Refibrillation was defined as recurrence of VF after at least 5 beats of a non-VF rhythm following defibrillation. Survival was determined based on presence of sBP≧30 mmHg in abdominal aorta and normal sinus rhythm at the end of 30 min observation period. Time to Return of Spontaneous Circulation (ROSC) was calculated from the onset of CPR until sBP≧60 mmHg was attained in abdominal aorta after successful defibrillation. Sustained ROSC was defined as maintenance of sBP≧60 mmHg by the end of 30-min observation post-defibrillation. Ventricular ERP was measured at baseline and at 20 minutes into recovery (if any) via the S1-S2 stimulation method. Surface ECG signals at 4 min of VF and at 7 min of VF were extracted to analyze for VF organization. A Spatio-temporal index of VF organization (Regularity Index (RI)) was used. RI was defined as the ratio of the power at the Dominant Frequency (DF) to the total power. […] The total power was calculated as the sums over the range of 5-15 Hz. Values vary between 0 (disorganized) to 1 (highly organized).
Mean time to ROSC, mean time to successful defibrillation, onset of refibrillation and regularity index of VF at different time points were analyzed using unpaired student t-test. Repeated-measures ANOVA was used to compare continuous variables between groups at different time points. Protein phosphorylation analysis and comparison of ordinal variables (number of refibrillations) were performed using Wilcoxon Mann-Whitney test. […] P<0.05 was considered statistically significant. All statistical analysis were performed using Stata 11.1 (Stata Corp LP)

As for `O=C1CN(/N=C/c2ncc(-c3ccc(Br)cc3)o2)C(=O)N1` [Azumolene], the “water solubility relative to dantrolene” value in series [1] is on record as 30 times.

In the case of `O=C1CN(N=Cc2ccc(-c3ccc([N+](=O)[O-])cc3)o2)C(=O)N1.[Na]` [Dantrolene, 1-[[[5-(4-nitrophenyl)-2-furanyl]methylene]amino]-2,4-imidazolidinedione sodium salt], in the series with isolated rabbit hearts (Dantrolene 10-20 μM/l), the “Incidence of CaA-ALT after second VF” value is recorded as “approximately 12.5%” and the “mean duration of all VF episodes combined” value is given as “about 194±234 sec”. Also, the “successful attempts to induce VF (VF lasting ≧10 sec)” value in the series on isolated rabbit hearts (Dantrolene 10-20 μM/l infused at 1 min of first VF, 12 of 31 attempts) is listed as 38.7%. The “VF episodes sustained >60 sec” value in the series with isolated rabbit hearts (Dantrolene 10-20 μM/l, 7 of 31 attempts) was determined as 22.58%. In the series with isolated rabbit hearts (Dantrolene 10-20 μM/l, pacing cycle length), the alternans threshold result was “about 186±11 msec CL”. Also, in the series with Yorkshire pigs (2 mg/kg bolus), the “Number of Refibrillations” value came to 0.6 ± 0.4, the “Number of shocks to terminate refibrillations” value is given as 1 ± 0, the “Sinus rhythm immediately post-defibrillation” value was “approximately 90.91%” and the “Survival after Refibrillation” value was 100% (3). In addition, in the series on Yorkshire pigs (2 mg/kg bolus), the “Time to ROSC calculated from immediately post-defibrillation” value is listed as “about 13±4 sec”, the “Time to onset of Refibrillation” value was 51 ± 9 s, the “animals requiring energy levels ≦200J for defibrillating the initial VF” value was “Ninety” and the “sBP peak at 5 min post-defibrillation” value is “approximately 98±17 mmHg”. Further, in the series with Yorkshire pigs (2 mg/kg bolus at onset of CPR), the “Final Rhythm PEA” value stood at 0%, the “Final Rhythm Sinus” value is listed as 90.91%, the “Final Rhythm VF (or VrF)” value is 9.09% and the “ROSC (at 5 min post-defibrillation)” value was 90.91%. In addition, the “post-defibrillation VERP” value with Yorkshire pigs (2 mg/kg bolus, 20 minutes into recovery) was “about 215±9 msec”. Also, the “Refibrillation Incidence” value in the series with Yorkshire pigs (2 mg/kg bolus, 30 min monitoring after defibrillation) was found to be 36.36%. Further, in the series with Yorkshire pigs (setting [2]), the Maximum energy level was determined as 187 ± 62 J and the Total energy level turned out to be 366 ± 139. Further, the “Total time in VF Including VrF (refibrillation)” value with Yorkshire pigs (2 mg/kg bolus, initial VF plus all refibrillations) was determined as 478 ± 19 s. Besides, the “Total time in VF Excluding VrF” value with Yorkshire pigs (2 mg/kg bolus, initial VF without refibrillations) came to 466 ± 18 s. In addition, in the series on Yorkshire pigs (setting [3]), the QT interval post-defibrillation result is listed as “about 334±83 msec” and the “Tp-Tn (repolarization dispersion) post-defibrillation” value is given as “about 84±22 msec”. Further, the “Number of shocks (>2 attempts)” value in the series on Yorkshire pigs (2 mg/kg bolus, share of animals needing >2 attempts) came out at 9.09%. Besides, the Refibrillation duration with Yorkshire pigs (2 mg/kg bolus, sodium salt, 2 mg/kg) worked out at 32 ± 6 s. For the same molecule, in the series on Yorkshire pigs (2 mg/kg bolus, survivors), the “mean dBP at the end of experiment” value is on record as “about 61±10 mmHg” and the “mean sBP at the end of experiment” value is listed as “about 84±11 mmHg”. This molecule also showed a Successful defibrillation in the series on Yorkshire pigs (Dantrolene Sodium 2 mg/kg bolus at onset of CPR after 4 min untreated VF) of 100%. Moreover, in the series on Yorkshire pigs (Dantrolene group, baseline), the “QT interval at baseline” value is listed as “about 432±48 msec” and the “Tp-Tn (repolarization dispersion) at baseline” value is listed as “about 68±23 msec”.
